The conditions of data set [1]: Liquid; for mass density: 293.15 K, 101.33 kPa.
Data set [2] is described as follows: refractive index (Na D-line) (dimensionless). As to conditions: 293.15 K; 101.33 kPa; Liquid; Standard Abbe refractometry.

The mass density is the mass of a sample divided by its volume. By refractive index is commonly meant a measure of how strongly the sample bends light.

Numbers after ± are expanded uncertainties.

For the compound `CCOC(=O)c1ccccc1C(=O)OCC` [diethyl phthalate], the mass density in data set [1] (Vibrating tube method) is on record as 1117.2 ± 0.6 kg/m3. For the same compound, in data set [1], the Normal boiling temperature was determined as 298.02 ± 0.1 °C. Besides, in data set [2], the refractive index came to 1.5003 ± 0.0008.
Turning to `CCC(=O)O` [propanoic acid], in data set [1], the mass density worked out at 992.7 ± 0.5 kg/m3 and the Normal boiling temperature is 141.0 ± 0.1 °C. For the same compound, the refractive index in data set [2] was 1.3811 ± 0.0008.

The values are drawn from the NIST ThermoML archive (doi:10.1016/j.jct.2005.02.005).
